From patent US12077503B2, “Substituted cyclic amides and their use as herbicides” (FMC CORPORATION, priority 2015, dated 2024)

Experiments:
Experiment in all cases: Test G Post-Emergence Protocol
Format in all cases: in vivo
corn (Zea mays) = test system: corn (Zea mays)
Procedure, shortened: (§1)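 Damage was rated 13 days after treatment from 0 (none) to 100 (plant killed). Compound was applied as a spray at 15.625, 62.5 or 250 g/ha in 50:50 acetone/water containing 0.5% Tween 20, onto 8-day-old potted plants kept in a glasshouse (24/16 °C, 14 h light, 65% humidity).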

[1] = test system: ivy-leaved morning glory (Ipomoea hederacea)
Procedure, shortened: as §1

[2] = test system: giant foxtail (Setaria faberi)
Procedure, shortened: as §1

[3] = test system: barnyardgrass (Echinochloa crus-galli)
Procedure, shortened: as §1

[4] = test system: redroot pigweed (Amaranthus retroflexus)
Procedure, shortened: as §1

[5] = 15.625 g ai/ha, evaluated after 13 days (100=total damage to plant; 0=no damage to plant)
[6] = 62.5 g ai/ha, evaluated after 13 days
[7] = 250 g ai/ha, evaluated after 13 days

CN1C[C@H](c2ccc(C(F)(F)F)cc2)[C@@H](C(=O)Nc2cccc(F)n2)C1=O [Compound 1400]
Corn damage rating (corn (Zea mays); [5]): 10
Corn damage rating (100=total damage to plant; 0=no damage to plant) (corn (Zea mays); [6]): 20
damage to plant, Corn (100=total damage to plant; 0=no damage to plant) (corn (Zea mays); [7]): 60
Morningglory, Ivy-leaved damage rating [1, 5]: 0
Morningglory, Ivy-leaved damage rating (100=total damage to plant; 0=no damage to plant) [1, 6]: 0
damage to plant, Morningglory, Ivy-leaved (100=total damage to plant; 0=no damage to plant) [1, 7]: 0
Foxtail, Giant damage rating [2, 5]: 60
Foxtail, Giant damage rating (100=total damage to plant; 0=no damage to plant) [2, 6]: 70
damage to plant, Foxtail, Giant (100=total damage to plant; 0=no damage to plant) [2, 7]: 70
Barnyardgrass damage rating [3, 5]: 50
Barnyardgrass damage rating (100=total damage to plant; 0=no damage to plant) [3, 6]: 70
damage to plant, Barnyardgrass (100=total damage to plant; 0=no damage to plant) [3, 7]: 70
Pigweed, Redroot damage rating [4, 5]: 20
Pigweed, Redroot damage rating (100=total damage to plant; 0=no damage to plant) [4, 6]: 50
damage to plant, Pigweed, Redroot (100=total damage to plant; 0=no damage to plant) [4, 7]: 60

CN1C[C@H](c2cccc(C(F)(F)F)c2)[C@@H](C(=O)Nc2cccnc2F)C1=O [Compound 1397]
plant injury at 15.625 g/ha (corn (Zea mays); Zea mays, post-emergence, 312 h, 15.625 g ai/ha, evaluated after 13 days (100=total damage to plant; 0=no damage to plant), read-out: Corn damage rating): 80%
plant injury at 62.5 g/ha (corn (Zea mays); Zea mays, post-emergence, 312 h, 62.5 g ai/ha, evaluated after 13 days, read-out: Corn damage rating (100=total damage to plant; 0=no damage to plant)): 80%
plant injury at 250 g/ha (corn (Zea mays); Zea mays, post-emergence, 312 h, 250 g ai/ha, evaluated after 13 days, read-out: damage to plant, Corn (100=total damage to plant; 0=no damage to plant)): 80%
pest or weed control at 15.625 g/ha ([1]; Ipomoea, post-emergence, 312 h, 15.625 g ai/ha, evaluated after 13 days (100=total damage to plant; 0=no damage to plant), read-out: Morningglory, Ivy-leaved damage rating): 60%
pest or weed control at 62.5 g/ha ([1]; Ipomoea, post-emergence, 312 h, 62.5 g ai/ha, evaluated after 13 days, read-out: Morningglory, Ivy-leaved damage rating (100=total damage to plant; 0=no damage to plant)): 60%
pest or weed control at 250 g/ha ([1]; Ipomoea, post-emergence, 312 h, 250 g ai/ha, evaluated after 13 days, read-out: damage to plant, Morningglory, Ivy-leaved (100=total damage to plant; 0=no damage to plant)): 70%
pest or weed control at 15.625 g/ha ([2]; Setaria faberi, post-emergence, 312 h, 15.625 g ai/ha, evaluated after 13 days (100=total damage to plant; 0=no damage to plant), read-out: Foxtail, Giant damage rating): 80%
pest or weed control at 62.5 g/ha ([2]; Setaria faberi, post-emergence, 312 h, 62.5 g ai/ha, evaluated after 13 days, read-out: Foxtail, Giant damage rating (100=total damage to plant; 0=no damage to plant)): 80%
pest or weed control at 250 g/ha ([2]; Setaria faberi, post-emergence, 312 h, 250 g ai/ha, evaluated after 13 days, read-out: damage to plant, Foxtail, Giant (100=total damage to plant; 0=no damage to plant)): 80%
pest or weed control at 15.625 g/ha ([3]; Echinochloa crus-galli, post-emergence, 312 h, 15.625 g ai/ha, evaluated after 13 days (100=total damage to plant; 0=no damage to plant), read-out: Barnyardgrass damage rating): 80%
pest or weed control at 62.5 g/ha ([3]; Echinochloa crus-galli, post-emergence, 312 h, 62.5 g ai/ha, evaluated after 13 days, read-out: Barnyardgrass damage rating (100=total damage to plant; 0=no damage to plant)): 80%
pest or weed control at 250 g/ha ([3]; Echinochloa crus-galli, post-emergence, 312 h, 250 g ai/ha, evaluated after 13 days, read-out: damage to plant, Barnyardgrass (100=total damage to plant; 0=no damage to plant)): 80%
pest or weed control at 15.625 g/ha ([4]; Amaranthus retroflexus, post-emergence, 312 h, 15.625 g ai/ha, evaluated after 13 days (100=total damage to plant; 0=no damage to plant), read-out: Pigweed, Redroot damage rating): 0%
pest or weed control at 62.5 g/ha ([4]; Amaranthus retroflexus, post-emergence, 312 h, 62.5 g ai/ha, evaluated after 13 days, read-out: Pigweed, Redroot damage rating (100=total damage to plant; 0=no damage to plant)): 30%
pest or weed control at 250 g/ha ([4]; Amaranthus retroflexus, post-emergence, 312 h, 250 g ai/ha, evaluated after 13 days, read-out: damage to plant, Pigweed, Redroot (100=total damage to plant; 0=no damage to plant)): 60%
